This is an account of results in patent US20090099169A1, “Benzofuran Compounds As EP1 Receptor Antagonists” (GLAXO GROUP LIMITED, priority 2006, published 2009).

Counter-ions that a name gives are not always drawn.

This assay deals with T1, human EP1 receptor (Homo sapiens, UniProt P34995).
T1 sequence (P34995 1-402): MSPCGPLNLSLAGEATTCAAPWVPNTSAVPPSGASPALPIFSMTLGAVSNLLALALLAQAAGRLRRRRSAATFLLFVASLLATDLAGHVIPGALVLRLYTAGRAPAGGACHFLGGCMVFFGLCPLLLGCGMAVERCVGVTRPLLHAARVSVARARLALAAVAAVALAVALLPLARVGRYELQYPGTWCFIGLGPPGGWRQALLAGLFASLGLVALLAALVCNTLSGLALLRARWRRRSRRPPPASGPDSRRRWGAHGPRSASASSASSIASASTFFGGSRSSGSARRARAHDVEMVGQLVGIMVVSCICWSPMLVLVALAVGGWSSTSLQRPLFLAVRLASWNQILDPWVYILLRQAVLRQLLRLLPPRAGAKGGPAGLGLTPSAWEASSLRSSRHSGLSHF
The assay can be described thus: Binding assay for the human prostanoid EP1 receptor (radioligand competition). Set-up: expressed in transfected cells; host or cells: CHO-K1 (membranes). The conditions noted are these: CHO-K1 membranes; [3H]-PGE2 for Examples 1-17, 19, 33, 34, 60 and 61, 3-{2-[5-Bromo-2-(2,4-difluorobenzyloxy)-phenyl]-5-methyl-pyrrol-1-yl}-6-[3H3-methoxy]methoxy-benzoic acid for the remaining; averages of a number of experiments; read-out: pIC50 value (binding assay for the human prostanoid EP1 receptor) (converted). In outline: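 Membranes from CHO-K1 cells stably expressing human EP1, in pH 6 MES buffer with 10 mM MgCl2. Competition with [3H]-PGE2 (3 nM final) for 30 min at 30 °C, or alternatively with a tritiated benzoic-acid ligand (0.2 nM final) for 45 min at 37 °C; filtration and scintillation counting, IC50 by non-linear fitting.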
In general terms: Displacement assays read how much labelled ligand stays bound in the presence of the test substance.

In the case of `CC(C)c1cc2cc(Cl)cc(Cc3ccc(C(=O)O)o3)c2o1` [Example 1, 5-{[5-Chloro-2-(1-methylethyl)-1-benzofuran-7-yl]methyl}-2-furancarboxylic Acid], the IC50 is no more than 100 nM.

Regarding `Cc1cc(C(=O)O)nn1Cc1cc(Cl)cc2cc(C(C)C)oc12` [Example 3, 1-{[5-Chloro-2-(1-methylethyl)-1-benzofuran-7-yl]methyl}-5-methyl-1H-pyrazole-3-carboxylic Acid], the IC50 was no more than 100 nM.

As to `CCNCc1ccc(NC(=O)c2cc(C)n(Cc3cc(Cl)cc4cc(C(C)C)oc34)n2)cc1` [Example 15, 1-{[5-Chloro-2-(1-methylethyl)-1-benzofuran-7-yl]methyl}-N-{4-[(ethylamino)methyl]phenyl}-5-methyl-1H-pyrazole-3-carboxamide hydrochloride], the IC50 is no more than 100 nM.

In the case of `Cc1cc(C(=O)Nc2ccc(CN3CCC(O)CC3)cc2)nn1Cc1cc(Cl)cc2cc(C(C)C)oc12` [Example 16, 1-{[5-Chloro-2-(1-methylethyl)-1-benzofuran-7-yl]methyl}-N-{4-[(4-hydroxy-1-piperidinyl)methyl]phenyl}-5-methyl-1H-pyrazole-3-carboxamide hydrochloride], the IC50 was no more than 100 nM.

Consider `Cc1cc(C(=O)Nc2ccc(CN3CC[C@@H](O)C3)cc2)nn1Cc1cc(Cl)cc2cc(C(C)C)oc12` [Example 17, 1-{[5-Chloro-2-(1-methylethyl)-1-benzofuran-7-yl]methyl}-N-(4-{[(3R)-3-hydroxy-1-pyrrolidinyl]methyl}phenyl)-5-methyl-1H-pyrazole-3-carboxamide hydrochloride], for which the IC50 was no more than 100 nM.

With `Cc1cc(C(=O)NN2CCOCC2)nn1Cc1cc(Cl)cc2cc(C3CCCCC3)oc12` [Example 28, 1-[(5-Chloro-2-cyclohexyl-1-benzofuran-7-yl)methyl]-5-methyl-N-4-morpholinyl-1H-pyrazole-3-carboxamide], the IC50 was no more than 100 nM.
